Results from publication PMC6215995 (International Journal for Parasitology: Drugs and Drug …, 2018).
Like-named read-outs stand apart in the source and are kept apart here. Marks after values point to notes of the source that are not given here.

How the values were obtained:
P. falciparum 3D7 = experiment: Antiplasmodial SYBR green assay, CQ-sensitive strain; type: cell-based; details: for Selective index 3D7: ratio between MDL50 and IC50, 3D7
Experimental: Briefly, the plates were centrifuged at 700g for 5 min at room temperature to remove the medium, washed with PBS and incubated for 30 min with lysis buffer solution [2.4228 g TRIS, ultra-pure for 20 mM solution, pH 7.5; 1.8612 g of EDTA 5 mM ultrapure for 5 mM solution; 80 μg Saponin (0.008% w/v); 800 μL of Triton X-100 (0.08% v/v); water Type I] and SYBR green I DNA stain (1:20000). The fluorescence of uninfected erythrocytes was considered as background.
(§1) The half-maximal drug inhibitory concentration (IC50) was estimated by curve fitting using the software from the OriginLab Corporation (USA) and compared to the parasite growth in the drug-free medium.

P. falciparum K1 = experiment: Antiplasmodial SYBR green assay, multidrug-resistant strain; type: cell-based; details: for Selective index K1: ratio between MDL50 and IC50, K1
Experimental: The freshly sorbitol synchronized ring stages were immediately incubated with the test compounds at various concentrations (from 10 to 0.152 μM or 1.0–0.0152 μM) that were previously solubilized in 0.05% dimethyl sulfoxide (DMSO) (v/v) ([Lambros and Vanderberg, 1979]). […] The antiplasmodial activity of the compounds was measured through SYBR green assay ([Smilkstein et al., 2004]). Briefly, the plates were centrifuged at 700g for 5 min at room temperature to remove the medium, washed with PBS and incubated for 30 min with lysis buffer solution [2.4228 g TRIS, ultra-pure for 20 mM solution, pH 7.5; 1.8612 g of EDTA 5 mM ultrapure for 5 mM solution; 80 μg Saponin (0.008% w/v); 800 μL of Triton X-100 (0.08% v/v); water Type I] and SYBR green I DNA stain (1:20000). The fluorescence of uninfected erythrocytes was considered as background. Fluorescence was measured on fluorimeter (SpectraMax340PC384) at 485/535 nm.
as §1

BGM-VN = details: MTT, 24 h
Experimental: The compounds (20 μL), at various concentrations (400–1.0 μM), were placed in the 96-well plates, incubated with the cultured cells for 24 h under a 5% CO2 atmosphere at 37 °C and then the 3-(4,5-dimethylthiazol-2-yl)-2,5-diphenyltetrazolium bromide (MTT) solution (5 mg/mL; 20 μL/well for 3 h) was used to evaluate the mitochondrial viability. The supernatants were carefully removed and 100 μL DMSO were added to each well and mixed to solubilize the formazan crystals. The optical density was determined at 570 and 630 nm (background) (SpectraMax340PC384). The cell viability was expressed as the percentage of the control absorbance in the untreated cells after subtracting the appropriate background. Each test was performed in triplicate in at least two different experiments.

β-hematin formation = experiment: Inhibition of β-hematin formation assay; type: biochemical; details: MOG lipid catalyst, sodium acetate pH 4.8, 37 °C, 2 h; read-out: β-hematin inhibition IC50 (mM)± SD
Experimental: The assay was performed using a lipid as a catalyst to promote crystallization ([Pisciotta et al., 2007]; [Fitch et al., 1999]). Briefly, drug stock solutions were prepared in DMSO and were used at a final concentration of up to 30 mM. […] After incubation for 30 min at room temperature, the amount of solubilized monomeric heme was determined by measuring the absorbance at 405 nm. […] The absorbance was read at 405 nm to determine the total amount of heme present in each well. The inhibition of heme crystallization was determined as a function of the amount of monomeric heme that was not crystallized divided by the total amount of heme present in the assay mixture. The results are expressed as IC50 values based on the percentage inhibition of β-hematin formation by the compounds […] and DAQ.

P. berghei NK65 = experiment: Suppressive test in P. berghei infected mice; type: in vivo; details: for Reduction of parasitemia until day 11 after infection / Mice survival in comparison with the non-treated control / Parasitemia on day 5 / Parasitemia %reduction on day 5 / Parasitemia on day 7 / Parasitemia %reduction on day 7 / Parasitemia on day 9 / Parasitemia %reduction on day 9 / Parasitemia on day 11 / Parasitemia %reduction on day 11 / Parasitemia on day 13 / Parasitemia %reduction on day 13 / Parasitemia on day 15 / Parasitemia %reduction on day 15 / Survival: three consecutive days; for Mice survival in comparison with the non-treated control: Mann-Whitney test p < 0.05; for Parasitemia %reduction on day 5: day 5, vs non treated; for Parasitemia %reduction on day 7: day 7, vs non treated; for Parasitemia %reduction on day 9: day 9, vs non treated; for Parasitemia %reduction on day 11: day 11, vs non treated; for Parasitemia %reduction on day 13: day 13, vs non treated; for Parasitemia %reduction on day 15: day 15, vs non treated
Experimental: The P. berghei NK65 strain was obtained as a donation from New York University and maintained through weekly blood passages. For the experiments, groups of up to 30 mice were inoculated i.p. with 1 × 10^5 infected erythrocytes, kept together for about 24 h, then randomly distributed into groups of five per cage. […] On days 5–15 after the parasite inoculation, blood was taken from the tail of each mouse and used to prepare thin smears that were methanol-fixed, Giemsa-stained, and examined microscopically (1000×) to determine parasitemia. […] The experiments were performed twice.

[1] = Plasmodium falciparum, 3D7 CQ-sensitive strain, read-out: IC50 (nM ± SD) P. falciparum 3D7
[2] = Plasmodium falciparum, K1 multidrug-resistant strain, read-out: IC50 (nM ± SD) P. falciparum K1
[3] = oral 50 mg/kg, followed until day 30
[4] = 20 mg/kg, followed until day 30
[5] = 3D7 CQ-sensitive strain, read-out: IC50 (nM ± SD) P. falciparum 3D7
[6] = K1 multidrug-resistant strain, read-out: IC50 (nM ± SD) P. falciparum K1

Row | Compound | IC50 (P. falciparum 3D7; [1]) [nM] | Selective index 3D7 (P. falciparum 3D7) | IC50 (P. falciparum K1; [2]) [nM] | Selective index K1 (P. falciparum K1) | MLD50 BGM-VN (BGM-VN) [µM] | IC50 (β-hematin formation) [mM] | Reduction of parasitemia until day 11 after infection (P. berghei NK65; oral 50 mg/kg) [%] | Mice survival in comparison with the non-treated control (P. berghei NK65; oral 50 mg/kg) | Parasitemia on day 5 (P. berghei NK65; oral 50 mg/kg) | Parasitemia on day 7 (P. berghei NK65; oral 50 mg/kg) | Parasitemia %reduction on day 7 (P. berghei NK65; oral 50 mg/kg) [%] | Parasitemia on day 9 (P. berghei NK65; oral 50 mg/kg) | Parasitemia %reduction on day 9 (P. berghei NK65; oral 50 mg/kg) [%] | Parasitemia on day 11 (P. berghei NK65; oral 50 mg/kg) | Parasitemia %reduction on day 11 (P. berghei NK65; oral 50 mg/kg) [%] | Parasitemia on day 13 (P. berghei NK65; oral 50 mg/kg) | Parasitemia %reduction on day 13 (P. berghei NK65; oral 50 mg/kg) [%] | Parasitemia on day 15 (P. berghei NK65; oral 50 mg/kg) | Parasitemia %reduction on day 15 (P. berghei NK65; oral 50 mg/kg) [%] | Survival (P. berghei NK65; [3]) | also measured
1 | NCCNc1ccnc2cc(Cl)ccc12 [CEQ, N-(2-aminoethyl)-7-chloroquinolin-4-amine] | 273 ± 12 | 655 | 218 ± 44 | 821 | 179 ± 40 | 1.2 ± 0.76 | 100 | significantly higher | 0.00 | 0.00 | 100 | 0.00 | 100 | 0.00 | 100 | 0.57 | 94 | 4 | 80 | 26 ± 6 ^b | Parasitemia %reduction on day 5 (P. berghei NK65; oral 50 mg/kg): 100%
2 | CCN(CC)CCCC(C)Nc1ccnc2cc(Cl)ccc12 (centres unmarked) [CQ, Chloroquine, reference compound] |  |  |  |  |  | 0.76 ± 0.46 |  |  |  |  |  |  |  |  |  |  |  |  |  |  | IC50 (P. falciparum 3D7; Plasmodium falciparum, 3D7, read-out: IC50 (nM ± SD) P. falciparum 3D7): 36 ± 12 nM; IC50 (P. falciparum K1; Plasmodium falciparum, K1, read-out: IC50 (nM ± SD) P. falciparum K1): 177 ± 20 nM; Survival in words (P. berghei NK65; [4]): survived until the last day of the experiment; Parasitemia on day 5 (P. berghei NK65; 20 mg/kg): 0.00; Parasitemia %reduction on day 5 (P. berghei NK65; 20 mg/kg): 100%; Parasitemia on day 7 (P. berghei NK65; 20 mg/kg): 0.00; Parasitemia %reduction on day 7 (P. berghei NK65; 20 mg/kg): 100%; Parasitemia on day 9 (P. berghei NK65; 20 mg/kg): 0.00; Parasitemia %reduction on day 9 (P. berghei NK65; 20 mg/kg): 100%; Parasitemia on day 11 (P. berghei NK65; 20 mg/kg): 0.00; Parasitemia %reduction on day 11 (P. berghei NK65; 20 mg/kg): 100%; Parasitemia on day 13 (P. berghei NK65; 20 mg/kg): 0.00; Parasitemia %reduction on day 13 (P. berghei NK65; 20 mg/kg): 100%; Parasitemia on day 15 (P. berghei NK65; 20 mg/kg): 0.00; Parasitemia %reduction on day 15 (P. berghei NK65; 20 mg/kg): 100%; Survival (P. berghei NK65; [4]): >30 ^b; Parasitemia in words (P. berghei NK65; 20 mg/kg, until the last day of evaluation (day 15)): no parasitemia
3 | O=C(O)CNc1ccnc2cc(Cl)ccc12 [GIQ, Acid 2-(7-chloroquinolin-4-ylamino) acetic] | > 10000 | Inactive | > 10000 | Inactive | >1000 | 7.6 ± 0.2 |  |  |  |  |  |  |  |  |  |  |  |  |  |  | Activity against P. falciparum in words (P. falciparum 3D7; sensitive and resistant parasites, highest dose 10 μM): inactive in all doses tested
4 | N-(4-(dimethylamino)but-2-enyl)-7-chloro-quinolin-4-amine [DAQ] |  |  |  |  | 1481 ± 39 | 0.15 ± 0.03 | 100 | significantly higher | 0.00 | 0.00 | 100 | 0.00 | 100 | 0.00 | 100 | 0.77 | 92 | 3.67 | 82 | 28 ± 1 ^b | IC50 (P. falciparum 3D7; [5]): 46 ± 4 nM; IC50 (P. falciparum K1; [6]): 50 ± 3 nM; Parasitemia %reduction on day 5 (P. berghei NK65; oral 50 mg/kg): 100%
5 | N-(prop-2-enyl)-7-chloroquinoline-4-amine [PCQ] |  |  |  |  | 407 ± 185 | 3 ± 3 |  | not increased | 1.04 | 4.83 | 10 | 5.75 | 8 | 7.5 | 32 | 7.0 | 32 | 34.5 | 0 | 17 ± 8 | IC50 (P. falciparum 3D7; [5]): 377 ± 14 nM; IC50 (P. falciparum K1; [6]): 405 ± 32 nM; Parasitemia %reduction on day 5 (P. berghei NK65; oral 50 mg/kg, 50 mg/kg): 73%
